Data: US7632666B2 (priority 2005, dated 2009)
Read-outs that look alike come from different tables or passages of the source.

Assays:
[1] = target: haloalkane dehalogenase DbjA (Bradyrhizobium diazoefficiens, UniProt P59337); assay type: biochemical, Bradyrhizobium japonicum USDA110
[2] = target: haloalkane dehalogenase DhlA (Xanthobacter autotrophicus, UniProt P22643); assay type: biochemical, Xanthobacter autotrophicus GJ10
[3] = target: haloalkane dehalogenase LinB (Sphingobium indicum, UniProt D4Z2G1); assay type: biochemical, Sphingomonas paucimobilis UT26
[4] = target: haloalkane dehalogenase DhaA (Rhodococcus rhodochrous, UniProt P0A3G2); assay type: biochemical, Rhodococcus rhodochrous NCIMB 13064
[5] = test system: haloalkane dehalogenase DbeA; assay type: biochemical, Bradyrhizobium elkanii; settings: pH 8.2
[6] = test system: haloalkane dehalogenases DmbA, DmbB, DmbC, DhlA, DhaA, DrbA, LinB, DhmA, DbjA and DbeA; assay type: biochemical
[7] = test system: haloalkane dehalogenase DrbA; assay type: biochemical, Rhodopirellula baltica; settings: pH 8.2
[8] = target: haloalkane dehalogenase DmbC (Mycobacterium bovis, UniProt P64304); assay type: biochemical; settings: pH 8.2
[9] = target: haloalkane dehalogenase DmbB (Mycobacterium bovis, UniProt P64302); assay type: biochemical; settings: pH 8.2
[10] = target: haloalkane dehalogenase DhmA (Mycobacterium avium, UniProt Q93K00); assay type: biochemical; settings: pH 8.2
[11] = target: modified protein MUT01 with haloalkane dehalogenase activity (Rhodococcus rhodochrous, UniProt P0A3G2, A172V/C176G/F144A/G171R/INS140[…]/K175G/P142A/V245A/W141H); assay type: biochemical; settings: pH 8.2

Structure (SMILES) | E-values DbjA [1] | E-value, chiral recognition by DbjA ([1]; pH 8.2) | E-values DhlA [2] | E-values LinB [3] | E-values DhaA [4] | E-value, chiral recognition by DbeA [5] | enantioselectivity [6] | E-values DrbA [7] | E-values DbjA ([1]; pH 8.2) | E-values DmbC [8] | E-values LinB ([3]; pH 8.2) | E-values DmbB [9] | E-values DhmA [10] | E-values DhaA ([4]; pH 8.2) | E-values DbeA [5] | E-value, chiral recognition by protein MUT01 [11] | E-value, chiral recognition by DhaA ([4]; pH 8.2)
CCCC(C)Br (racemic) [2-bromopentane] | 145 | > 145 | 5.5 | 16 | 7 | 98 | – | – | – | – | – | – | – | – | – | – | –
CC(Br)C(=O)c1ccccc1 (racemic) [2-bromopropiophenone] | >200 | > 200 | – | 13 | >200 | – | excellent enantioselectivity | – | – | – | – | – | – | – | – | – | –
CCOC(=O)C(Br)CC (racemic) [ethyl 2-bromobutyrate] | >200 | – | – | >200 | >200 | – | – | >200 | >200 | >200 | >200 | >200 | >200 | >200 | >200 | – | –
CCOC(=O)C(C)Br (racemic) [ethyl 2-bromopropionate] | 194 | – | – | 97 | 59 | – | excellent enantioselectivity | – | – | – | – | – | – | – | – | > 200 | –
COC(=O)C(C)Br (racemic) [methyl 2-bromopropionate] | >200 | – | – | 52 | 68 | – | excellent enantioselectivity | – | – | – | – | – | – | – | – | – | > 200
